Test results from US10745360B2, “Quinoxaline compounds, method for preparing the same and use thereof” (Development Center for Biotechnology, priority 2014, dated 2020).
Like-named read-outs stand apart in the source and are kept apart here.

What was measured:
[1] = tested on: B-Raf^V600E mutant COLO205 colon cancer cell; assay: Cell proliferation assay (CELLTITER 96), COLO205; format: cell-based; details: Homo sapiens, COLO 205; COLO205, 72 hours; read-out: Cytotoxicity (IC50 Ranking) COLO205 (B-Raf^V600E)
Protocol: (§1) Inhibition of cell growth by compounds was measured using CELLTITER 96® assay. The cytotoxicity of compounds was evaluated in B-Raf^V600E mutant A375 melanoma cell, B-Raf^V600E mutant COLO205 colon cancer cell, and SK-MEL-2 melanoma cell with wild type B-Raf (B-Raf^wt) and NRASQ^Q61R mutation. A375 and COLO205 cell line were cultured in DMEM containing 10% FCS and incubated at 37° C. in 5% CO2 atmosphere. SK-MEL-2 cell line was cultured in MEM containing 10% FCS and incubated at 37° C. in 5% CO2 atmosphere. A375, COLO205 and SK-MEL-2 cell were seeded into 96-well plates at 2000, 2000, and 4000 cells/well, respectively, and allowed to adhere for overnight. Then, these seeded cells were treated with increasing concentrations of the test compounds and incubated for another 72 hours. At the end of the incubation, CELLTITER 96® Aqueous One Solution Reagent (Promega) was added and incubated for 4 hours. Cell viability was determined by measuring absorbance at 490 nm using EMAX® microplate reader (Molecular Devices).
(§2) The 50% inhibitory concentration (IC50) value was calculated by plotting the percentage of growth inhibition against the concentration of compound, using GraphPad Prism5 software for curve fitting.

C-Raf kinase = biological target: T1, C-Raf kinase (Homo sapiens, UniProt P04049); assay: C-Raf kinase assay ([33P] incorporation into MEK1 K97R); format: biochemical; details: recombinant C-Raf, 8 μM ATP, 30 min, 30° C.; read-out: IC50 ranking against C-Raf kinase
T1 construct: purchased Upstate Biotechnology
T1 sequence (P04049 whole entry): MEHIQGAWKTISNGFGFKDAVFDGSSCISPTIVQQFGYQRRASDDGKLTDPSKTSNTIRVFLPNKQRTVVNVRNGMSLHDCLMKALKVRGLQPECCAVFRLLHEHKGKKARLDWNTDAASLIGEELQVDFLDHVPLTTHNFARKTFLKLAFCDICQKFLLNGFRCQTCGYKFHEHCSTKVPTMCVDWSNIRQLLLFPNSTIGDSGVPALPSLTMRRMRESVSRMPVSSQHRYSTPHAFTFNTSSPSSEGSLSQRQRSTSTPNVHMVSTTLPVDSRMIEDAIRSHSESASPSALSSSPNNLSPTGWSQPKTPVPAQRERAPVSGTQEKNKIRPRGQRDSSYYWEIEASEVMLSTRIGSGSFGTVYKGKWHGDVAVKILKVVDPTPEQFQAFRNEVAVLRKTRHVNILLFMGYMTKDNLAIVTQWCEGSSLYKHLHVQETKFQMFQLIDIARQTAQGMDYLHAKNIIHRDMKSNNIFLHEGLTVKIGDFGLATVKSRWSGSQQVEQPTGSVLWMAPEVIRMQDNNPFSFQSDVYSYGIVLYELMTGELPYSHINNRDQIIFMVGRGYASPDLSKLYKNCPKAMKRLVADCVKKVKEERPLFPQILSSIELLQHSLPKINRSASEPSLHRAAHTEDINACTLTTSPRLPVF
Protocol: (§3) Inhibition of kinase activity by a test compound disclosed herein was estimated by quantifying the amount of [^33P] incorporation of a substrate in the presence of the test compound. Standard assay conditions were 2 ng of recombinant C-Raf kinase (Upstate Biotechnology) with 500 ng MEK1(K97R) in assay buffer (8 μM ATP, 0.5 μCi [^33P]ATP (specific activity 3000 Ci/mmol, PerkinElmer), 50 mM Tris/HCl (pH 7.5), and 1 mM EGTA, 1 mM Na3VO4, 1% 2-mercaptoethanol, 0.1% Brij 35, and 0.2 mg/ml BSA), and the test compound (diluted with 4% DMSO) or DMSO alone (as a control) in a final volume of 25 μL. Reactions were incubated at 30° C. for 30 min and stopped by adding 3% phosphoric acid, harvested onto a 96-well GF/B UniFilter (PerkinElmer) using a unifilter harvester (PerkinElmer), and counted with a TopCount microplate scintillation counter (PerkinElmer). The IC50 values of inhibitors were determined after carrying out assays at 3-fold serially diluted concentrations of each compound in duplication. The results were analyzed using linear regression software (GraphPad Prism 4; GraphPad Software Inc.).

[2] = tested on: SK-MEL-2 melanoma cell with wild type B-Raf (B-Raf^wt) and NRAS^Q61R mutation; assay: Cell proliferation assay (CELLTITER 96), SK-MEL-2; format: cell-based; details: Homo sapiens, SK-MEL-2, 72 hours, read-out: Cytotoxicity (IC50 Ranking) SK-MEL-2 (NRAS^Q61R, B-Raf^wt)
Protocol: as §1, §2

B-Raf kinase = biological target: T2, B-Raf kinase (Homo sapiens, UniProt P15056); assay: B-Raf kinase assay ([33P] incorporation into MEK1 K97R); format: biochemical; details: recombinant B-Raf, 8 μM ATP, 30 min, 30° C.; read-out: IC50 ranking against B-Raf kinase
T2 construct: purchased Upstate Biotechnology
T2 sequence (P15056 whole entry): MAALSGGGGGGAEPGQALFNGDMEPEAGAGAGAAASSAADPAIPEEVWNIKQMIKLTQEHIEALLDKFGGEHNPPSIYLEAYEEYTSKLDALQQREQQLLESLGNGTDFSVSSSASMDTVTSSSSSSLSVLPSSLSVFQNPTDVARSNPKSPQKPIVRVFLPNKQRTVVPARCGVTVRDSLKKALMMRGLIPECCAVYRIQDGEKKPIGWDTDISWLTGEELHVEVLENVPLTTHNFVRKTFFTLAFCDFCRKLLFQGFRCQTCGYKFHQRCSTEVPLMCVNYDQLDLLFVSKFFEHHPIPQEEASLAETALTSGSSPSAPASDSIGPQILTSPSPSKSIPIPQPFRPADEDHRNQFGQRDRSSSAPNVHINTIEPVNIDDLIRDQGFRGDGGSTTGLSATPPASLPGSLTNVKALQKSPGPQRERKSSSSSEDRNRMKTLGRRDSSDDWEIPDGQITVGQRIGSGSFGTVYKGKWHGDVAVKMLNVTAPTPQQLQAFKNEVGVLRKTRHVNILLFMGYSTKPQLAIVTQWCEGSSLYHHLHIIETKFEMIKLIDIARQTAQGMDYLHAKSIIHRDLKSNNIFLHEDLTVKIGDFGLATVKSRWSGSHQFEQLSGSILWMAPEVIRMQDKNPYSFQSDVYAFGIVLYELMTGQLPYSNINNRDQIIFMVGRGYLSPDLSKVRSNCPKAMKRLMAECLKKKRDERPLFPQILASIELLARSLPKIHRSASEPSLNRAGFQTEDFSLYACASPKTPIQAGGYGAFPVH
Protocol: Inhibition of kinase activity by a test compound disclosed herein was estimated by quantifying the amount of [^33P] incorporation of a substrate in the presence of the test compound. Standard assay conditions were 5 ng of recombinant B-Raf kinase (Upstate Biotechnology) with 500 ng MEK1(Map-erk kinase; K97R) in the assay buffer (8 μM ATP, 0.5 μCi [^33P]ATP (specific activity 3000 Ci/mmol, PerkinElmer), 50 mM Tris/HCl (pH 7.5), and 1 mM EGTA, 1 mM Na3VO4, 1% 2-mercaptoethanol, 0.1% Brij 35, and 0.2 mg/ml BSA) in a final volume of 25 μL. Reactions were incubated at 30° C. for 30 min and stopped by adding 3% phosphoric acid, harvested onto a 96-well GF/B UniFilter (PerkinElmer) using a unifilter harvester (PerkinElmer), and counted with a TopCount microplate scintillation counter (PerkinElmer). The IC50 values of inhibitors were determined after carrying out assays at 3-fold serially diluted concentrations of each compound in duplication. The results were analyzed using linear regression software (GraphPad Prism 4; GraphPad Software Inc.).

[3] = tested on: B-Raf^V600E mutant A375 melanoma cell; assay: Cell proliferation assay (CELLTITER 96), A375; format: cell-based; details: Homo sapiens, A-375; A375, 72 hours; read-out: Cytotoxicity (IC50 Ranking) A375 (B-Raf^V600E)
Protocol: as §1, §2

B-Raf^V600E kinase = biological target: T3, B-Raf^V600E kinase (Homo sapiens, UniProt P15056, V600E); assay: B-Raf V600E kinase assay ([33P] incorporation into MEK1 K97R); format: biochemical; details: recombinant B-Raf^V600E, 8 μM ATP, 30 min, 30° C.; read-out: IC50 ranking against B-Raf^V600E kinase
T3 construct: purchased Upstate Biotechnology
T3 sequence (P15056 whole entry V600E): as the sequence (P15056 whole entry) above, with V600E counted along it
Protocol: as §3, with “were 5” for “were 2”, “recombinant B-Raf^V600E” for “recombinant C-Raf”, “ng MEK1 (K97R)” for “ng MEK1(K97R)”

| Structure (SMILES) | IC50 (C-Raf kinase) [nM] | IC50 (B-Raf kinase) [nM] | IC50 (B-Raf^V600E kinase) [nM] | IC50 [1] [nM] | IC50 ([2]; given as bound) [nM] | IC50 [3] [nM] | IC50 ([2]; given as class symbol) [nM] |
| --- | --- | --- | --- | --- | --- | --- | --- |
| N#Cc1c(Nc2c(F)ccc(NS(=O)(=O)c3ccccc3)c2Cl)ccc2ncc(N3CCOCC3)nc12 [compound 49, N-(2-chloro-3-(5-cyano-3-morpholinoquinoxalin-6-ylamino)-4-fluorophenyl)benzenesulfonamide] | < 300 | < 300 | < 300 | < 300 | > 10000 | < 300 |  |
| N#Cc1c(Nc2c(F)ccc(NS(=O)(=O)CCCF)c2F)ccc2ncc(N3CCOCC3)nc12 [compound 33, N-(3-(5-cyano-3-morpholinoquinoxalin-6-ylamino)-2,4-difluorophenyl)-3-fluoropropane-1-sulfonamide] | < 300 | < 300 | < 300 | < 300 |  | < 300 | 1000 to 10000 |
| CCCS(=O)(=O)Nc1ccc(F)c(Nc2ccc3ncc(Nc4c(F)cccc4F)nc3c2)c1F [compound 2, N1-(3-{[3-(2,6-difluoroanilino)-6-quinoxalinyl]amino}-2,4-difluorophenyl)-1-propanesulfonamide] | < 300 | < 300 | < 300 | 300 to 1000 | > 10000 | 300 to 1000 |  |
| CCCS(=O)(=O)Nc1ccc(F)c(Nc2ccc3ncc(Nc4ccc(F)cc4F)nc3c2)c1F [compound 13, N1-(3-{[3-(2,4-difluoroanilino)-6-quinoxalinyl]amino}-2,4-difluorophenyl)-1-propanesulfonamide] | < 300 | < 300 | < 300 | 1000 to 10000 | > 10000 | 300 to 1000 |  |
| CCCS(=O)(=O)Nc1ccc(F)c(Nc2ccc3ncc(OCCN4CCOCC4)nc3c2[N+](=O)[O-])c1F [compound 6, N1-(2,4-difluoro-3-{[3-(2-morpholinoethoxy)-5-nitro-6-quinoxalinyl]amino}phenyl)-1-propanesulfonamide] | < 300 | < 300 | < 300 | < 300 | > 10000 | < 300 |  |
| COc1cnc2ccc(Nc3c(F)ccc(NS(C)(=O)=O)c3F)c([N+](=O)[O-])c2n1 [compound 14, N-{2,4-difluoro-3-[(3-methoxy-5-nitro-6-quinoxalinyl)amino]phenyl}methanesulfonamide] | 300 to 1000 | 300 to 1000 | 300 to 1000 | 1000 to 10000 | > 10000 | 1000 to 10000 |  |

Continued, in another order:

| IC50 (C-Raf kinase) [nM] | IC50 (B-Raf kinase) [nM] | IC50 (B-Raf^V600E kinase) [nM] | Structure (SMILES) | IC50 [1] [nM] | IC50 ([2]; given as bound) [nM] | IC50 [3] [nM] | IC50 ([2]; given as class symbol) [nM] |
| --- | --- | --- | --- | --- | --- | --- | --- |
| 300 to 1000 | 300 to 1000 | 300 to 1000 | CCCS(=O)(=O)Nc1ccc(C)c(Nc2ccc3ncc(OC)nc3c2C#N)c1 [compound 40, N-(3-(5-cyano-3-methoxyquinoxalin-6-ylamino)-4-methylphenyl)propane-1-sulfonamide] | 1000 to 10000 | > 10000 | 1000 to 10000 |  |
| < 300 | < 300 | < 300 | CCCS(=O)(=O)Nc1ccc(F)c(Nc2ccc3ncc(OCCOC)nc3c2[N+](=O)[O-])c1F [compound 7, N1-(2,4-difluoro-3-[3-(2-methoxyethoxy)-5-nitro-6-quinoxalinyl]aminophenyl)-1-propanesulfonamide] | < 300 | > 10000 | < 300 |  |
| 1000 to 10000 | 1000 to 10000 | 1000 to 10000 | CS(=O)(=O)Nc1ccc(F)c(Nc2ccc3ncc(N4CCOCC4)nc3c2C#N)c1 [compound 26, N-(3-(5-cyano-3-morpholinoquinoxalin-6-ylamino)-4-fluorophenyl)methanesulfonamide] | 1000 to 10000 | > 10000 | 1000 to 10000 |  |
| < 300 | < 300 | < 300 | CCCS(=O)(=O)Nc1ccc(F)c(Nc2ccc3ncc(OCC)nc3c2C#N)c1 [compound 36, N-(3-(5-cyano-3-ethoxyquinoxalin-6-ylamino)-4-fluorophenyl)propane-1-sulfonamide] | < 300 | > 10000 | < 300 |  |
| < 300 | < 300 | < 300 | COc1cnc2ccc(Nc3cc(NS(=O)(=O)c4ccccc4)ccc3F)c(C#N)c2n1 [compound 35, N-(3-(5-cyano-3-methoxyquinoxalin-6-ylamino)-4-fluorophenyl)benzenesulfonamide] | < 300 | > 10000 | < 300 |  |
| < 300 | < 300 | < 300 | CCCS(=O)(=O)Nc1ccc(F)c(Nc2ccc3ncc(N4CCOCC4)nc3c2C#N)c1Cl [compound 48, N-(2-chloro-3-(5-cyano-3-morpholinoquinoxalin-6-ylamino)-4-fluorophenyl)propane-1-sulfonamide] | < 300 | > 10000 | < 300 |  |
| < 300 | < 300 | < 300 | CCCS(=O)(=O)Nc1ccc(F)c(Nc2ccc3ncc(OCC)nc3c2C#N)c1F [compound 17, N-(3-(5-cyano-3-ethoxyquinoxalin-6-ylamino)-2,4-difluorophenyl)propane-1-sulfonamide] | < 300 | > 10000 | < 300 |  |
| < 300 | < 300 | < 300 | CCCS(=O)(=O)Nc1ccc(F)c(Nc2ccc3ncc(OC)nc3c2C=O)c1F [compound 29, N-(2,4-difluoro-3-(5-formyl-3-methoxyquinoxalin-6-ylamino)phenyl)propane-1-sulfonamide] | < 300 | > 10000 | < 300 |  |
| 1000 to 10000 | 300 to 1000 | 300 to 1000 | CCCS(=O)(=O)Nc1ccc(C)c(Nc2ccc3ncc(N4CCOCC4)nc3c2C#N)c1 [compound 39, N-(3-(5-cyano-3-morpholinoquinoxalin-6-ylamino)-4-methylphenyl)propane-1-sulfonamide] | 1000 to 10000 | > 10000 | 1000 to 10000 |  |
